The record followed here is patent publication US10329294B2, “Pyrazolopyrimidine inhibitors of IRAK4 activity” (MERCK SHARP & DOHME CORP., priority 2015, dated 2019).

The assay has as its target IRAK4 (Homo sapiens (Human), UniProt Q9NWZ3). As to the kind of experiment: IRAK4 Kinase Assay. To be noted: IMAP fluorescence polarization, 0.5 nM GST tagged IRAK4, 100 μM ATP, 30 minutes at 25° C.; read-out: IRAK4 IC50. The assay is classed as biochemical. A general note: Fluorescence polarisation rises when a labelled molecule tumbles more slowly, as on binding a larger partner.

Structures are written as SMILES. Where a name gives a salt, the structure may show the parent alone.

Chain of IRAK4 (Q9NWZ3 whole entry): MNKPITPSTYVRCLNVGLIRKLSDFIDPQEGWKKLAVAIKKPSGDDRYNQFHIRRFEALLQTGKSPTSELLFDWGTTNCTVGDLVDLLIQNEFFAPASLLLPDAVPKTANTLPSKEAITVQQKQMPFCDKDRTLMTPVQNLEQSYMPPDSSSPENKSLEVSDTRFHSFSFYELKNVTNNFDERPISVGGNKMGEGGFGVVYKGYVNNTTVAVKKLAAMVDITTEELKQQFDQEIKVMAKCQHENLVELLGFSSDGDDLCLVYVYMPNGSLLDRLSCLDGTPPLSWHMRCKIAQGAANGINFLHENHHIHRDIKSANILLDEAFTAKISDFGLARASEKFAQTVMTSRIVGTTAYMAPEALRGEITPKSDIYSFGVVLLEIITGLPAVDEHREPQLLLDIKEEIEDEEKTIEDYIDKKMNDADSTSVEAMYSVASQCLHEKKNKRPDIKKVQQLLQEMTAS

`Cn1cc(NC(=O)c2cnn3ccc(N4C[C@H]5CC[C@@H]4CN5)nc23)c(C#N)n1` (single isomer, unassigned) [Example 157, N-(3-cyano-1-methyl-1H-pyrazol-4-yl)-5-[(1S,4S)- or (1R,4R)-2,5-diazabicyclo[2.2.2]oct-2-yl]pyrazolo[1,5-a]pyrimidine-3-carboxamide trifluoroacetate]: the IC50 is 0.06 µM.

For `CC(C)(C)n1cc(NC(=O)c2cnn3ccc(N[C@@H]4CCCC(F)(F)[C@@H]4N)nc23)c(C(F)(F)F)n1` [Example 49, 5-{[(1R,2R)-2-amino-3,3-difluorocyclohexyl]amino}-N-[1-tert-butyl-3-(trifluoromethyl)-1H-pyrazol-4-yl]pyrazolo[1,5-a]pyrimidine-3-carboxamide trifluoroacetate], the IC50 amounted to 0.89 µM. The same measure for `Cn1cc(NC(=O)c2cnn3ccc(N4CC5CCC4CN5)nc23)c(C#N)n1` (centres unmarked) [Example 136, N-(3-cyano-1-methyl-1H-pyrazol-4-yl)-5-(2,5-diazabicyclo[2.2.2]oct-2-yl)pyrazolo[1,5-a]pyrimidine-3-carboxamide trifluoroacetate]: 0.049 µM; for `Cn1cc(NC(=O)c2cnn3ccc(NC4CNCCC4F)nc23)c(C(F)F)n1` (single isomer, unassigned) [Example 237, N-[3-(difluoromethyl)-1-methyl-1H-pyrazol-4-yl]-5-[(3R or S, 4R or S-4-fluoropiperidin-3-yl)amino]pyrazolo[1,5-a]pyrimidine-3-carboxamide]: 0.0006 µM. Then `O=C(Nc1cn(CC(F)F)nc1C(F)(F)F)c1cnn2ccc(N3CCNCC3)nc12` [Example 62, N-[1-(2,2-difluoroethyl)-3-(trifluoromethyl)-1H-pyrazol-4-yl]-5-piperazin-1-ylpyrazolo[1,5-a]pyrimidine-3-carboxamide trifluoroacetate], with 0.029 µM; and `N#Cc1ccccc1NC(=O)c1cnn2ccc(N3CC4CCC3CN4)nc12` (centres unmarked) [Example 271, N-(2-cyanophenyl)-5-(2,5-diazabicyclo[2.2.2]oct-2-yl)pyrazolo[1,5-a]pyrimidine-3-carboxamide trifluoroacetate], with 0.403 µM. The same measure for `Cn1cc(NC(=O)c2cnn3ccc(N[C@H]4CNCC(F)(F)C4)nc23)c(C(F)(F)F)n1` (single isomer, unassigned) [Example 219, 5-{[(3S)- or (3R)-5,5-difluoropiperidin-3-yl]amino}-N-[1-methyl-3-(trifluoromethyl)-1H-pyrazol-4-yl]pyrazolo[1,5-a]pyrimidine-3-carboxamide]: 0.007 µM.

As to `CC(C)n1cc(NC(=O)c2cnn3ccc(N4CC5CCC4CN5)nc23)c(C(F)(F)F)n1` (centres unmarked) [Example 53, 5-(2,5-diazabicyclo[2.2.2]oct-2-yl)-N-[1-(1-methylethyl)-3-(trifluoromethyl)-1H-pyrazol-4-yl]pyrazolo[1,5-a]pyrimidine-3-carboxamide], the IC50 was found to be 0.048 µM. The same measure for `Cn1cc(NC(=O)c2cnn3ccc(N[C@@H]4CNCC(F)(F)C4)nc23)c(C(F)F)n1` (single isomer, unassigned) [Example 228, N-[3-(difluoromethyl)-1-methyl-1H-pyrazol-4-yl]-5-{[(3S)- or (3R)-5,5-difluoropiperidin-3-yl]amino}pyrazolo[1,5-a]pyrimidine-3-carboxamide]: 0.059 µM. Take `Cn1cc(NC(=O)c2cnn3ccc(N4CCNCC(F)(F)C4)nc23)c(C(F)(F)F)n1` [Example 36, 5-(6,6-difluoro-1,4-diazepan-1-yl)-N-[1-methyl-3-(trifluoromethyl)-1H-pyrazol-4-yl]pyrazolo[1,5-a]pyrimidine-3-carboxamide trifluoroacetate]: the IC50 stood at 0.376 µM. Regarding `Cn1cc(NC(=O)c2cnn3ccc(N4C[C@@H]5CC[C@H]4CN5)nc23)c(Br)n1` (single isomer, unassigned) [Example 164, N-(3-bromo-1-methyl-1H-pyrazol-4-yl)-5-[(1S,4S)- or (1R,4R)-2,5-diazabicyclo[2.2.2]oct-2-yl]pyrazolo[1,5-a]pyrimidine-3-carboxamide trifluoroacetate], the 50% inhibitory concentration (IC50) was determined as 0.05 µM. For the compound `Cn1cc(NC(=O)c2cnn3ccc(N4CC[C@@H]5CC[C@H](C4)N5)nc23)c(C(F)(F)F)n1` (single isomer, unassigned) [Example 94, 5-[(1R,6S)- or (1S,6R)-3,9-diazabicyclo[4.2.1]non-3-yl]-N-[1-methyl-3-(trifluoromethyl)-1H-pyrazol-4-yl]pyrazolo[1,5-a]pyrimidine-3-carboxamide trifluoroacetate], the IC50 stood at 0.07 µM. Then `Cn1cc(NC(=O)c2cnn3ccc(N[C@@H]4CCCC[C@@H]4N)nc23)c(-c2nncn2C)n1` [Example 286, 5-{[(1R,2S)-2-aminocyclohexyl]amino}-N-[1-methyl-3-(4-methyl-4H-1,2,4-triazol-3-yl)-1H-pyrazol-4-yl]pyrazolo[1,5-a]pyrimidine-3-carboxamide trifluoroacetate], with 0.007 µM. As for `Cn1cc(NC(=O)c2cnn3ccc(N[C@@H]4CCCCC[C@@H]4N)nc23)c(C(F)(F)F)n1` (single isomer, unassigned) [Example 54, 5-{[(1R,2S)- or (1S,2R)-2-aminocycloheptyl]amino}-N-[1-methyl-3-(trifluoromethyl)-1H-pyrazol-4-yl]pyrazolo[1,5-a]pyrimidine-3-carboxamide], the IC50 was found to be 0.063 µM. Regarding `N[C@H]1CCCC[C@H]1Nc1ccn2ncc(C(=O)Nc3ccsc3Cl)c2n1` [Example 116, 5-{[(1R,2S)-2-aminocyclohexyl]amino}-N-(2-chlorothiophen-3-yl)pyrazolo[1,5-a]pyrimidine-3-carboxamide trifluoroacetate], the IC50 was found to be 0.001 µM. Then `Cn1cc(NC(=O)c2cnn3ccc(N[C@H]4CNC[C@@H](F)C4)nc23)c(C(F)F)n1` [Example 258, N-[3-(difluoromethyl)-1-methyl-1H-pyrazol-4-yl]-5-{[(3R,5S)-5-fluoropiperidin-3-yl]amino}pyrazolo[1,5-a]pyrimidine-3-carboxamide hydrochloride], with 0.0005 µM. Then `N#Cc1ccccc1NC(=O)c1cnn2ccc(N3CCCNCC3)nc12` [Example 273, N-(2-cyanophenyl)-5-(1,4-diazepan-1-yl)pyrazolo[1,5-a]pyrimidine-3-carboxamide trifluoroacetate], with 1.36 µM; and `Cn1cc(NC(=O)c2cnn3ccc(N[C@@H]4CNC[C@@H](F)C4)nc23)c(C(F)F)n1` [Example 256, N-[3-(difluoromethyl)-1-methyl-1H-pyrazol-4-yl]-5-{[(3S,5S)-5-fluoropiperidin-3-yl]amino}pyrazolo[1,5-a]pyrimidine-3-carboxamide], with 0.008 µM; and `Cn1cc(NC(=O)c2cnn3ccc(N4C5CCC4CNC5)nc23)c(C(F)F)n1` [Example 229, 5-(3,8-diazabicyclo[3.2.1]oct-8-yl)-N-[3-(difluoromethyl)-1-methyl-1H-pyrazol-4-yl]pyrazolo[1,5-a]pyrimidine-3-carboxamide trifluoroacetate], with 0.0005 µM.

For the compound `Cn1cc(NC(=O)c2cnn3ccc(N4C[C@H]5CC[C@@H]4CN5)nc23)c(C(F)F)n1` (single isomer, unassigned) [Example 161, 5-[(1S,4S)- or (1R,4R)-2,5-diazabicyclo[2.2.2]oct-2-yl]-N-[3-(difluoromethyl)-1-methyl-1H-pyrazol-4-yl]pyrazolo[1,5-a]pyrimidine-3-carboxamide trifluoroacetate], the IC50 was found to be 0.002 µM.

A word on the IC50: it is the point on the concentration scale where inhibition reaches its midpoint.
